In ChEMBL document CHEMBL2321738, “Metabolites of the pyrimidine amine preladenant as adenosine a2a receptor antagonists” (ACS Med Chem Lett, 2013):

target: Adenosine receptor A2a (Homo sapiens, UniProt P29274); assay: Binding affinity to human adenosine A2a receptor by competition binding assay
Sequence (P29274 whole entry): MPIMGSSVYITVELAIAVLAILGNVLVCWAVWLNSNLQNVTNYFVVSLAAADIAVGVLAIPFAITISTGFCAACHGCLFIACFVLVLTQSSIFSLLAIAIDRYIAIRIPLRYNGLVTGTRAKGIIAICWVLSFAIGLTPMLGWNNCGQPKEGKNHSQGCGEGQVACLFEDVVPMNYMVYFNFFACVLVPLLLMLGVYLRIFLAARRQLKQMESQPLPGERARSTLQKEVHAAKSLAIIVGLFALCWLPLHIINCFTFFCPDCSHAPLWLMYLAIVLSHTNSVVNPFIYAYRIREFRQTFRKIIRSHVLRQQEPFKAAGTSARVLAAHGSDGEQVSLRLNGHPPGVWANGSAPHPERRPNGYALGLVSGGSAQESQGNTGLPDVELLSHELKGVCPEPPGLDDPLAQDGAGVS

`COCCOc1ccc(N2CCN(CCn3ncc4c3nc(N)n3nc(C(O)CCC(=O)O)nc43)CC2)cc1` (centres undefined) and `Nc1nc2c(cnn2CCN2CCN(c3ccc(OCC(=O)O)cc3)CC2)c2nc(C(O)CCC(=O)O)nn12` (centres undefined) cannot be ordered by Ki: over 1000 nM for the first, over 1000 nM for the second.

First: Nc1nc2c(cnn2CCN2CCN(c3ccc(OCC(=O)O)cc3)CC2)c2nc(-c3ccco3)nn12
Second: Nc1nc2c(cnn2CC(=O)O)c2nc(-c3ccco3)nn12
The Ki of the first is lower: 1.4 nM for the first, over 1000 nM for the second.
